In brackets after ≈: the same amount, converted by molar mass. Activity calls are given as the source filed them. No cut-off for these calls is given here.
Legend:
[1] = test system: Staphylococcus epidermidis; assay: Antibacterial activity against Staphylococcus epidermidis ATCC 14990 assessed as inhibition of bacterial growth incubated for 24 hrs by microtiter plate reader analysis; assay type: functional
[2] = test system: A549; assay: Antiproliferative activity against human A549 cells assessed as inhibition of cell growth incubated for 72 hrs by CCK-8 assay; assay type: functional, cell-based; details: A549, 72 h
[3] = test system: SW1990; assay: Antiproliferative activity against human SW1990 cells assessed as inhibition of cell growth incubated for 72 hrs by CCK-8 assay; assay type: functional, cell-based; details: SW1990, 72 h
[4] = test system: NCI-H1299; assay: Antiproliferative activity against human NCI-H1299 cells assessed as inhibition of cell growth incubated for 72 hrs by CCK-8 assay; assay type: functional, cell-based; details: NCI-H1299, 72 h
[5] = test system: SW480; assay: Antiproliferative activity against human SW480 cells assessed as inhibition of cell growth incubated for 72 hrs by CCK-8 assay; assay type: functional, cell-based; details: SW480, 72 h
[6] = test system: Staphylococcus aureus; assay: Antibacterial activity against Staphylococcus aureus ATCC 25923 assessed as inhibition of bacterial growth incubated for 24 hrs by microtiter plate reader analysis; assay type: functional
[7] = test system: Pseudomonas aeruginosa; assay: Antibacterial activity against Pseudomonas aeruginosa ATCC 47085 assessed as inhibition of bacterial growth incubated for 24 hrs by microtiter plate reader analysis; assay type: functional
[8] = test system: SW480; assay: Inhibition of colony formation in human SW480 cells assessed as reduction in number of clonogenic cells at 0 to 2.5 uM incubated for 24 hrs followed by replacement with fresh medium and measured after 24 hrs by crystal violet staining based analysis; assay type: functional, cell-based; details: dose 0-2.5 µM
[9] = test system: SW480; assay: Induction of apoptosis in human SW480 cells assessed as increase in annexin V/PI positive cells incubated for 24 hrs by annexin V-FITC/PI staining based flow cytometry analysis; assay type: functional, cell-based; details: dose 0-2.5 µM

Structure (SMILES): CC[C@@](C)(NC(=O)[C@H](C)NC(=O)[C@H](C)NC(=O)C(C)(C)NC(C)=O)C(=O)N[C@](C)(CC)C(=O)N[C@@H](CCC(N)=O)C(=O)N[C@](C)(CC)C(=O)N[C@H](C(=O)NC(C)(C)C(=O)NCC(=O)N[C@@H](CC(C)C)C(=O)NC(C)(C)C(=O)N1CCC[C@H]1C(=O)N[C@@H](CC(C)C)C(=O)NC(C)(C)C(=O)NC(C)(C)C(=O)N[C@@H](CCC(N)=O)C(=O)N[C@H](CO)Cc1ccccc1)C(C)C
- MIC [1]: > 180 µg/mL
- IC50 [2]: 2700 nM
- IC50 [3]: 1500 nM
- IC50 [4]: 3000 nM
- IC50 [5]: 1500 nM
- MIC [6]: 23 µg/mL (≈ 12.8 µM)
- MIC [7]: > 180 µg/mL

Structure (SMILES): CC[C@@](C)(NC(=O)C(C)(C)NC(=O)[C@H](C)NC(=O)[C@H](C)NC(=O)C(C)(C)NC(C)=O)C(=O)N[C@@H](CCC(N)=O)C(=O)NC(C)(C)C(=O)N[C@H](C(=O)NC(C)(C)C(=O)NCC(=O)N[C@@H](CC(C)C)C(=O)NC(C)(C)C(=O)N1CCC[C@H]1C(=O)N[C@@H](CC(C)C)C(=O)NC(C)(C)C(=O)NC(C)(C)C(=O)N[C@@H](CCC(N)=O)C(=O)N[C@H](CO)Cc1c[nH]c2ccccc12)C(C)C
- MIC [1]: 90 µg/mL (≈ 49.9 µM)
- IC50 [2]: 2500 nM
- IC50 [3]: 1300 nM
- IC50 [4]: 3400 nM
- IC50 [5]: 880 nM
- MIC [6]: 23 µg/mL (≈ 12.7 µM)
- MIC [7]: > 180 µg/mL

Structure (SMILES): CC[C@@](C)(NC(=O)[C@H](CCC(N)=O)NC(=O)[C@@](C)(CC)NC(=O)C(C)(C)NC(=O)[C@H](C)NC(=O)[C@H](C)NC(=O)C(C)(C)NC(C)=O)C(=O)N[C@H](C(=O)NC(C)(C)C(=O)NCC(=O)N[C@@H](CC(C)C)C(=O)NC(C)(C)C(=O)N1CCC[C@H]1C(=O)N[C@@H](CC(C)C)C(=O)NC(C)(C)C(=O)NC(C)(C)C(=O)N[C@@H](CCC(N)=O)C(=O)N[C@H](CO)Cc1ccccc1)C(C)C
- MIC [1]: 90 µg/mL (≈ 50.6 µM)
- IC50 [2]: 2800 nM
- IC50 [3]: 1200 nM
- IC50 [4]: 4000 nM
- IC50 [5]: 1200 nM
- MIC [6]: 23 µg/mL (≈ 12.9 µM)
- MIC [7]: > 180 µg/mL

Structure (SMILES): CC[C@@](C)(NC(=O)C(C)(C)NC(=O)[C@H](C)NC(=O)[C@H](C)NC(=O)C(C)(C)NC(C)=O)C(=O)N[C@@H](CCC(N)=O)C(=O)NC(C)(C)C(=O)N[C@H](C(=O)NC(C)(C)C(=O)NCC(=O)N[C@@H](CC(C)C)C(=O)NC(C)(C)C(=O)N1CCC[C@H]1C(=O)N[C@@H](CC(C)C)C(=O)NC(C)(C)C(=O)NC(C)(C)C(=O)N[C@@H](CCC(N)=O)C(=O)N[C@H](CO)Cc1ccccc1)C(C)C
- MIC [1]: > 180 µg/mL
- IC50 [2]: 2700 nM
- IC50 [3]: 900 nM
- IC50 [4]: 4700 nM
- IC50 [5]: 900 nM
- MIC [6]: 45 µg/mL (≈ 25.5 µM)
- MIC [7]: > 180 µg/mL

Structure (SMILES): O=C(N[C@H](CO)[C@H](O)c1ccc([N+](=O)[O-])cc1)C(Cl)Cl [CHLORAMPHENICOL]
- MIC [1]: 1.6 µg/mL (≈ 4.95 µM)
- MIC [6]: 3.1 µg/mL (≈ 9.59 µM)
- MIC [7]: > 180 µg/mL

Structure (SMILES): CC[C@@](C)(NC(=O)[C@H](C)NC(=O)[C@H](CO)NC(=O)C(C)(C)NC(C)=O)C(=O)N[C@](C)(CC)C(=O)N[C@@H](CCC(N)=O)C(=O)N[C@](C)(CC)C(=O)N[C@H](C(=O)NC(C)(C)C(=O)NCC(=O)N[C@@H](CC(C)C)C(=O)NC(C)(C)C(=O)N1CCC[C@H]1C(=O)N[C@@H](CC(C)C)C(=O)NC(C)(C)C(=O)NC(C)(C)C(=O)N[C@@H](CCC(N)=O)C(=O)N[C@H](CO)Cc1ccccc1)C(C)C
- MIC [1]: 90 µg/mL (≈ 49.7 µM)
- IC50 [2]: 2600 nM
- IC50 [3]: 1100 nM
- IC50 [4]: 3200 nM
- IC50 [5]: 1100 nM
- MIC [6]: 23 µg/mL (≈ 12.7 µM)
- MIC [7]: > 180 µg/mL

Structure (SMILES): CC[C@@](C)(NC(=O)[C@H](C)NC(=O)[C@H](C)NC(=O)C(C)(C)NC(C)=O)C(=O)N[C@](C)(CC)C(=O)N[C@@H](CCC(N)=O)C(=O)NC(C)(C)C(=O)N[C@H](C(=O)NC(C)(C)C(=O)NCC(=O)N[C@@H](CC(C)C)C(=O)NC(C)(C)C(=O)N1CCC[C@H]1C(=O)N[C@@H](CC(C)C)C(=O)NC(C)(C)C(=O)NC(C)(C)C(=O)N[C@@H](CCC(N)=O)C(=O)N[C@H](CO)Cc1ccccc1)C(C)C
- MIC [1]: > 180 µg/mL
- IC50 [2]: 1300 nM
- inhibition [8]: Active
- IC50 [3]: 460 nM
- IC50 [4]: 1300 nM
- IC50 [5]: 460 nM
- MIC [6]: 45 µg/mL (≈ 25.3 µM)
- Activity [9]: Active
- MIC [7]: > 180 µg/mL

Structure (SMILES): CC[C@@H](C)[C@H](NC(=O)[C@@](C)(CC)NC(=O)[C@H](CCC(N)=O)NC(=O)[C@@](C)(CC)NC(=O)[C@@](C)(CC)NC(=O)[C@H](C)NC(=O)[C@H](CO)NC(=O)C(C)(C)NC(C)=O)C(=O)NC(C)(C)C(=O)NCC(=O)N[C@@H](CC(C)C)C(=O)NC(C)(C)C(=O)N1CCC[C@H]1C(=O)N[C@@H](CC(C)C)C(=O)NC(C)(C)C(=O)NC(C)(C)C(=O)N[C@@H](CCC(N)=O)C(=O)N[C@H](CO)Cc1ccccc1
- MIC [1]: > 180 µg/mL
- IC50 [2]: 2800 nM
- IC50 [3]: 960 nM
- IC50 [4]: 2900 nM
- IC50 [5]: 960 nM
- MIC [6]: 45 µg/mL (≈ 24.7 µM)
- MIC [7]: > 180 µg/mL

Reference: ChEMBL document CHEMBL5252630, “18-Residue Peptaibols Produced by the Sponge-Derived Trichoderma sp. GXIMD 01001” (J Nat Prod, 2023)
